The record followed here is ChEMBL document CHEMBL3351475, “Synthesis and anti-tumor activity of glycosyl oxadiazoles derivatives” (Bioorg Med Chem Lett, 2014).

Test [1] has as its system MDA-MB-231. As to the kind of experiment: Growth inhibition of human MDA-MB-231 cells at 100 uM after 24 hrs by MTT assay. The format is functional. As to conditions: MDA-MB-231, 24 h. In general terms: Formazan colour is commonly taken as a measure of viable cells.
The test system of test [2] is MDA-MB-231. As to the kind of experiment: Growth inhibition of human MDA-MB-231 cells after 24 hrs by MTT assay. The format is functional, cell-based. The note with it: MDA-MB-231, 24 h.

pIC50: −log10 of the molar value.

Take `O=C(N/N=C/c1ccccc1)c1ccc(O[C@@H]2O[C@H](CO)[C@@H](O)[C@H](O)[C@H]2O)cc1`: the inhibition (commonly the relative decrease from the control value, in per cent) at 100 µM in the test on MDA-MB-231 [1] was found to be 3.56%.
Same read-out and setting: as for `CC(C)/C=N/NC(=O)c1ccc(O[C@@H]2O[C@H](CO)[C@@H](O)[C@H](O)[C@H]2O)cc1`, the figure is 1.7%; as for `O=C(N/N=C/C1CCCCC1)c1ccc(O[C@@H]2O[C@H](CO)[C@@H](O)[C@H](O)[C@H]2O)cc1`, 0.88%; as for `CCCCC/C=N/NC(=O)c1ccc(O[C@@H]2O[C@H](CO)[C@@H](O)[C@H](O)[C@H]2O)cc1`, 11%.
Same read-out and setting: as for `O=C(N/N=C/c1cccc(Cl)c1)c1ccc(O[C@@H]2O[C@H](CO)[C@@H](O)[C@H](O)[C@H]2O)cc1`, the figure is 5.02%.
The compound `O=C(N/N=C/c1cccc([N+](=O)[O-])c1)c1ccc(O[C@@H]2O[C@H](CO)[C@@H](O)[C@H](O)[C@H]2O)cc1` registered an inhibition at 100 µM in the test on MDA-MB-231 [1] of 6.23%.
Take `O=C(N/N=C/c1ccc([N+](=O)[O-])cc1)c1ccc(O[C@@H]2O[C@H](CO)[C@@H](O)[C@H](O)[C@H]2O)cc1`: at 100 µM the inhibition with MDA-MB-231 [1] was 7.12%.
Turning to `N#Cc1cccc(/C=N/NC(=O)c2ccc(O[C@@H]3O[C@H](CO)[C@@H](O)[C@H](O)[C@H]3O)cc2)c1`, testing at 100 µM with MDA-MB-231 [1] gave an inhibition of 6.17%.
The compound `CC(=O)OC[C@H]1O[C@@H](Oc2ccc(-c3nnc(-c4ccccc4)o3)cc2)[C@H](OC(C)=O)[C@@H](OC(C)=O)[C@@H]1OC(C)=O` showed an inhibition at 100 µM with MDA-MB-231 [1] of 29.5%. Further, the negative-log IC50 (pIC50) (commonly −log10 of the IC50, conventionally taken in molar units) with MDA-MB-231 [2] was 5.22.
In turn, `COc1ccc(-c2nnc(-c3ccc(O[C@@H]4O[C@H](COC(C)=O)[C@@H](OC(C)=O)[C@H](OC(C)=O)[C@H]4OC(C)=O)cc3)o2)cc1` yielded an inhibition at 100 µM in the test on MDA-MB-231 [1] of 26%. In the test on MDA-MB-231 [2], this compound gave a negative-log IC50 (pIC50) of 5.03.
In the test on MDA-MB-231 [1], `CC(=O)OC[C@H]1O[C@@H](Oc2ccc(-c3nnc(-c4ccc(Cl)cc4)o3)cc2)[C@H](OC(C)=O)[C@@H](OC(C)=O)[C@@H]1OC(C)=O` yielded an inhibition at 100 µM of 42.1%. The same compound gave a pIC50 in the test on MDA-MB-231 [2] of 6.05.
Taken in the same sequence, the figures for `CC(=O)OC[C@H]1O[C@@H](Oc2ccc(-c3nnc(-c4ccc(F)cc4)o3)cc2)[C@H](OC(C)=O)[C@@H](OC(C)=O)[C@@H]1OC(C)=O` were 54.1% and 6.59.
In the test on MDA-MB-231 [1], `CC(=O)OC[C@H]1O[C@@H](Oc2ccc(-c3nnc(-c4ccc(C)cc4)o3)cc2)[C@H](OC(C)=O)[C@@H](OC(C)=O)[C@@H]1OC(C)=O` came in with an inhibition at 100 µM of 13.1%.
Compound `CC(=O)OC[C@H]1O[C@@H](Oc2ccc(-c3nnc(C(C)C)o3)cc2)[C@H](OC(C)=O)[C@@H](OC(C)=O)[C@@H]1OC(C)=O` displayed an inhibition at 100 µM in the test on MDA-MB-231 [1] of 11.9%.
Same read-out and setting: as for `CC(=O)OC[C@H]1O[C@@H](Oc2ccc(-c3nnc(C4CCCCC4)o3)cc2)[C@H](OC(C)=O)[C@@H](OC(C)=O)[C@@H]1OC(C)=O`, the figure is 11.6%.
On to `CCCCCc1nnc(-c2ccc(O[C@@H]3O[C@H](COC(C)=O)[C@@H](OC(C)=O)[C@H](OC(C)=O)[C@H]3OC(C)=O)cc2)o1`, for which the inhibition at 100 µM in the test with MDA-MB-231 [1] came to 21.5%. The compound also showed a negative logarithm of the IC50 (pIC50) in the test on MDA-MB-231 [2] of 5.08.
On to `CC(=O)OC[C@H]1O[C@@H](Oc2ccc(-c3nnc(-c4cccc(Cl)c4)o3)cc2)[C@H](OC(C)=O)[C@@H](OC(C)=O)[C@@H]1OC(C)=O`, for which at 100 µM the inhibition in the test with MDA-MB-231 [1] was 36.7%. In addition, the negative-log IC50 (pIC50) with MDA-MB-231 [2] was 5.87.
Taken in the same sequence, the figures for `CC(=O)OC[C@H]1O[C@@H](Oc2ccc(-c3nnc(-c4cccc([N+](=O)[O-])c4)o3)cc2)[C@H](OC(C)=O)[C@@H](OC(C)=O)[C@@H]1OC(C)=O` were 40.1% and 5.44.
Taken in the same sequence, the figures for `CC(=O)OC[C@H]1O[C@@H](Oc2ccc(-c3nnc(-c4ccc([N+](=O)[O-])cc4)o3)cc2)[C@H](OC(C)=O)[C@@H](OC(C)=O)[C@@H]1OC(C)=O` were 58% and 6.02.
Taken in the same sequence, the figures for `CC(=O)OC[C@H]1O[C@@H](Oc2ccc(-c3nnc(-c4cccc(C#N)c4)o3)cc2)[C@H](OC(C)=O)[C@@H](OC(C)=O)[C@@H]1OC(C)=O` were 44.1% and 5.97.
`COc1ccc(/C=N/NC(=O)c2ccc(O[C@@H]3O[C@H](CO)[C@@H](O)[C@H](O)[C@H]3O)cc2)cc1` (stereo in doubt) displayed an inhibition at 100 µM in the test with MDA-MB-231 [1] of 11.3%.
The same measure, in the same setting: as for `O=C(N/N=C/c1ccc(Cl)cc1)c1ccc(O[C@@H]2O[C@H](CO)[C@@H](O)[C@H](O)[C@H]2O)cc1` (stereo in doubt), the figure is 2.26%; as for `O=C(N/N=C/c1ccc(F)cc1)c1ccc(O[C@@H]2O[C@H](CO)[C@@H](O)[C@H](O)[C@H]2O)cc1` (stereo in doubt), 9.91%; as for `Cc1ccc(/C=N/NC(=O)c2ccc(O[C@@H]3O[C@H](CO)[C@@H](O)[C@H](O)[C@H]3O)cc2)cc1` (stereo in doubt), 9.28%.
Compound `CN(CCOc1ccc(CC2SC(=O)NC2=O)cc1)c1ccccn1` (stereo not given) [ROSIGLITAZONE] showed an inhibition at 100 µM in the test with MDA-MB-231 [1] of 34.2%. The pIC50 with MDA-MB-231 [2] was 5.28.
